Molecular target: T1, Eg5 motor protein (Homo sapiens, UniProt P52732)
T1 construct: Eg5 motor domain (amino acids 1-368) was cloned into pET22b; His-tag (C); made in house; host or cells: Escherichia coli BL21 (DE3)
T1 sequence (P52732 1-368): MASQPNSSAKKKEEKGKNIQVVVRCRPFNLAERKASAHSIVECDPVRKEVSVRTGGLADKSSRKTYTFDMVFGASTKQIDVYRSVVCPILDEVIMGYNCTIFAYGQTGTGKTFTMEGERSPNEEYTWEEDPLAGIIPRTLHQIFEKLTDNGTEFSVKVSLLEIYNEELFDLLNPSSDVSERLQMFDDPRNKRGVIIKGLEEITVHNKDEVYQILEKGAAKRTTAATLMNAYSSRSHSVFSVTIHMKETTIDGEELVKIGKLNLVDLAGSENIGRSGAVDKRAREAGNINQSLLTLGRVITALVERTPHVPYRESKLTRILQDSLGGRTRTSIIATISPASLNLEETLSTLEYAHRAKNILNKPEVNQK
Experiment: microtubule-activated Eg5 motor protein ATPase assay (malachite green, OD630)
Assay type: biochemical
Details: for IC50: microtubule-stimulated KSP ATPase activity
Experimental: Eg5 motor domain (amino acids 1-368) was cloned into pET22b and expressed in Escherichia coli BL21 (DE3) cells.
Tubulin was purified from pig brain, as described in the literature, and stored at −60 °C in BRB80 (80 mM K-Pipes, pH 6.8, 1 mM EGTA, 1 mM MgCl2). Before the assay of Eg5 ATPase, microtubules were assembled in the presence of paclitaxel and were then separated from unassembled tubulin by centrifugation as described in the literature.
Inhibitory activities of the compounds were measured using a microtubule-activated ATPase assay. The compounds, paclitaxel stabilized microtubules, Eg5 motor protein and BRB80 were added to wells of a 96-well plate in a total reaction volume of 38.5 μL. Reactions were started by the addition of 522.11 μM ATP in a total reaction volume of 98.5 μL, incubated at 37 °C for 30 min and terminated by the addition of 15 μL of perchloric acid. The mixture was centrifuged (10,000 rpm) 10 min at room temperature. The supernatant from this centrifugation step was mixed with HCl 1 M, 33 mM malachite green, 775 mM ammonium molybdate tetrahydrate. After 10 min the absorbance was measured at 630 nm using a microplate reader (BIO-RAD iMark^TM). […] Monastrol was used as the positive control. All conditions were performed in three independent duplicate experiments and averaged data points are shown as mean values ± SD, IC50 values were calculated with SPSS17.0 software. The primary data were shown in Supplementary Materials Tables S1–S3.
A sequence of human Eg5 corresponding to amino acids 1 to 368 was amplified with polymerase chain reaction (PCR) by NOVOPRO BIOSCIENCE INC. It was cloned into pET22b introducing a C-terminal His-tag. The protein was expressed in Escherichia coli BL21 (DE3) cells for 12 h at 25 ℃ in LB containing 1mM Isopropyl-beta-D-thiogalactopyranoside (IPTG), 50 ug/ml Ampicillin. The harvested cells were lysed with Ultrasonic Processor in Binder-buffer (50 mM Tris-HCl, 350 mM NaCl, 10 mM Imidazole, pH 8.0). The clarified lysate was loaded onto a Ni-IDA -Sepharose CL-6B Affi Gel column (Sigma), washed with Washing-buffer(20 mM Tris-HCl, 350 mM NaCl, 20 mM Imidazole, pH 8.0) untill effluent OD280 value reaches baseline. Then it was eluted with Elution-buffer (20 mM Tris-HCl, 350 mM NaCl , 250 mM Imidazole, pH8.0). The buffer was exchanged to 150 mM NaCl, 20mM Tris pH 8.0 by dialysis. The protein concentration was adjusted to 2 mg/ml (measured by a Bradford assay using bovine serum albumin (BSA) as standard). Eg5368H was stored at -20 ℃.
Pig brains were cleaned of blood clots with kitchen paper, weighed, and transferred to a Waring blender. Cold (4 ℃) depolymerization buffer (DB) was added at a ratio of 1 liter/kg of brain tissue. The mixture was homogenized twice for approximately 30 s. The homogenates were then centrifuged in a SLA 1500 Sorvall rotor at 29,000g for 60 min at 4 ℃. The supernatants were pooled and supplemented with an equal volume of warm (37 ℃) high-molarity PIPES buffer (HMPB), ATP (1.5 mM final), and GTP (0.5 mM final). An equal volume (1/3 of the final volume) of pre-warmed to 37 ℃ anhydrous glycerol was added to this solution. This mixture was incubated in a 37 ℃ water bath for 1 h. The polymerized tubulin was then centrifuged in a Ti 45 Beckman rotor at 151,000g (44,000 rpm) for 30 min at 37 ℃. The resulting microtubule pellets were resuspended in 100 ml of cold DB and left for 30 min on ice. The depolymerized tubulinwas subsequently centrifuged in a Ti 45 Beckman rotor at 70,000g (30,000 rpm) for 30 min at 4 ℃. The supernatant from this centrifugation step was mixed with an equal volume of the HMPB supplemented with ATP and GTP, followed by the addition of glycerol (1/3 of the final volume) as described above. The mixture was incubated in a 37 ℃ water bath for 30 min, and the polymerized tubulin was pelleted in a Ti 45 Beckman rotor at 151,000g (44,000 rpm) for 30 min at 37 ℃. […]

| OD630 Value Mean (compound 20.2 uM) | OD630 Value Mean (compound 40.41 uM) | OD630 Value Mean (compound 53.87 uM) | OD630 Value Mean (compound 60.61 uM) | OD630 Value Mean (compound 80.81 uM) | IC50 [µM] | OD630 Value Mean (compound 30.3 uM) | OD630 Value Mean (compound 90.91 uM) | OD630 Value Mean (compound 121.21 uM) | OD630 Value Mean (compound 25.38 uM) | OD630 Value Mean (compound 50.76 uM) | OD630 Value Mean (compound 67.68 uM) | OD630 Value Mean (compound 76.14 uM) | OD630 Value Mean (compound 101.52 uM) | OD630 Value Mean (compound 24.24 uM) | OD630 Value Mean (compound 107.74 uM) | SMILES |
| --- | --- | --- | --- | --- | --- | --- | --- | --- | --- | --- | --- | --- | --- | --- | --- | --- |
|  |  |  | 0.187 | 0.151 | 71.9 | 0.25 | 0.138 | 0.14 |  |  |  |  |  |  |  | COC(=O)c1[nH]c(C2NC(=S)NC(C)=C2C(=O)c2ccccc2)c(C(=O)OC)c1C (stereo not shown) [D14] |
|  |  |  |  |  | 51.7 |  |  |  | 0.214 | 0.193 | 0.190 | 0.188 | 0.177 |  |  | CCOC(=O)C1=C(C)NC(=S)NC1c1cccc(O)c1 (stereo not shown) [Monastrol, monastrol, reference compound] |
|  |  |  | 0.163 | 0.157 | 30.2 | 0.182 | 0.156 | 0.14 |  |  |  |  |  | 0.221 |  | CCOc1ccccc1C1NC(=S)NC(C)=C1C(=O)Nc1ccc(Cl)cc1 (stereo not shown) [C9] |

Continued, compound first:

| SMILES | OD630 Value Mean (compound 20.2 uM) | OD630 Value Mean (compound 40.41 uM) | OD630 Value Mean (compound 53.87 uM) | OD630 Value Mean (compound 60.61 uM) | OD630 Value Mean (compound 80.81 uM) | IC50 [µM] | OD630 Value Mean (compound 30.3 uM) | OD630 Value Mean (compound 90.91 uM) | OD630 Value Mean (compound 121.21 uM) | OD630 Value Mean (compound 25.38 uM) | OD630 Value Mean (compound 50.76 uM) | OD630 Value Mean (compound 67.68 uM) | OD630 Value Mean (compound 76.14 uM) | OD630 Value Mean (compound 101.52 uM) | OD630 Value Mean (compound 24.24 uM) | OD630 Value Mean (compound 107.74 uM) |
| --- | --- | --- | --- | --- | --- | --- | --- | --- | --- | --- | --- | --- | --- | --- | --- | --- |
| CCOC(=O)c1c(C2NC(=O)NC(C)=C2C(=O)Nc2ccccc2C)[nH]c(C(=O)OC)c1C (stereo not shown) [D2] | 0.322 | 0.279 | 0.26 | 0.219 | 0.137 | 67.3 |  |  |  |  |  |  |  |  |  |  |
| CCOC(=O)c1[nH]c(C2NC(=O)NC(C)=C2C(=O)Nc2ccc(Cl)cc2)c(C(=O)OCC)c1C (stereo not shown) [D7] |  |  |  | 0.197 | 0.164 | 63.2 | 0.231 | 0.158 | 0.146 |  |  |  |  |  |  |  |
| CCOC(=O)c1[nH]c(C2NC(=O)NC(C)=C2C(=O)Nc2ccccc2OC)c(C(=O)OC)c1C (stereo not shown) [D3] |  |  |  | 0.146 |  | 53.6 | 0.182 | 0.122 | 0.115 |  |  |  |  |  | 0.218 |  |
| CCOC(=O)c1c(C2NC(=O)NC(C)=C2C(=O)Nc2ccccc2)[nH]c(C(=O)OC)c1C (stereo not shown) [D10] |  |  |  | 0.225 | 0.197 | 64.4 |  | 0.191 | 0.133 |  |  |  |  |  |  | 0.139 |
| CCOC(=O)c1[nH]c(C2NC(=O)NC(C)=C2C(=O)Nc2ccccc2C)c(C(=O)OC)c1C (stereo not shown) [D4] |  |  |  | 0.158 |  | 71.3 | 0.174 | 0.148 | 0.134 |  |  |  |  |  | 0.198 |  |
| CCOC(=O)c1[nH]c(C2NC(=S)NC(C)=C2C(=O)OC)c(C(=O)OCC)c1C (stereo not shown) [D12] |  |  |  | 0.191 | 0.141 | 57.4 | 0.243 | 0.129 | 0.123 |  |  |  |  |  |  |  |
| CCOC(=O)c1c(C2NC(=O)NC(C)=C2C(=O)Nc2ccccc2OC)[nH]c(C(=O)OC)c1C (stereo not shown) [D1] |  |  |  |  |  | 38.7 |  |  |  | 0.26 | 0.248 | 0.195 | 0.189 | 0.159 |  |  |

Source: publication PMC8037182, “Solvothermal Synthesis of Multiple Dihydropyrimidinones at a Time as Inhibitors of Eg5” (Molecules, 2021)
